Structures can show the parent of a compound that is named as a salt. Where two headings read alike, the source gives them in different places. Blank lines part the entries; values can stand above or below the compound they belong to.
Assays:
[1] = biological target: T1, 5HT7 receptors (Homo sapiens, UniProt P34969); experiment: Radiolabeled binding (IC50 and Ki), [3H]LSD competition on membranes of cells expressing recombinant 5HT7 receptors; set-up: expressed in transfected cells
Method: Radiolabel Binding Studies for Serotonin 5HT7 Receptors, Method 1:
(§1) A solution of the compound of the disclosure to be tested is prepared as a 1-mg/ml stock in Assay Buffer or DMSO according to its solubility. A similar stock of the reference compound chlorpromazine is also prepared as a positive control. Eleven dilutions (5×assay concentration) of the compound of the disclosure and chlorpromazine are prepared in the Assay Buffer by serial dilution to yield final corresponding assay concentrations ranging from 10 pM to 10 μM.
A stock concentration of 5 nM [^3H]LSD (lysergic acid diethyl amide) is prepared in 50 mM Tris-HCl, 10 mM MgCl2, 1 mM EDTA, pH 7.4 (Assay Buffer). Aliquots (50 μl) of radioligand are dispensed into the wells of a 96-well plate containing 100 μl of Assay Buffer. Duplicate 50-μl aliquots of the compound of the disclosure test and chlorpromazine positive control reference compound serial dilutions are added.
Membrane fractions of cells expressing recombinant 5HT7 receptors (50 μL) are dispensed into each well. The membranes are prepared from stably transfected cell lines expressing 5HT7 receptors cultured on 10-cm plates by harvesting PBS-rinsed monolayers, resuspending and lysing in chilled, hypotonic 50 mM Tris-HCl, pH 7.4, centrifuging at 20,000×g, decanting the supernatant and storing at −80° C.; the membrane preparations are resuspended in 3 ml of chilled Assay Buffer and homogenized by several passages through a 26 gauge needle before using in the assay.
The 250-μl reactions are incubated at room temperature for 1.5 hours, then harvested by rapid filtration onto 0.3% polyethyleneimine-treated, 96-well filter mats using a 96-well Filtermate harvester. Four rapid 500-μl washes are performed with chilled Assay Buffer to reduce non-specific binding. The filter mats are dried, then scintillant is added to the filters and the radioactivity retained on the filters is counted in a Microbeta scintillation counter.
Raw data (dpm) representing total radioligand binding (i.e., specific+non-specific binding) are plotted as a function of the logarithm of the molar concentration of the competitor (i.e., test or reference compound). Non-linear regression of the normalized (i.e., percent radioligand binding compared to that observed in the absence of test or reference compound) raw data is performed in Prism 4.0 (GraphPad Software) using the built-in three parameter logistic model describing ligand competition binding to radioligand-labeled sites: y=bottom+[(top-bottom)/(1+10×−logIC50)] where bottom equals the residual radioligand binding measured in the presence of 10 μM reference compound (i.e., non-specific binding) and top equals the total radioligand binding observed in the absence of competitor. The log IC50 (i.e., the log of the ligand concentration that reduces radioligand binding by 50%) is thus estimated from the data and used to obtain the Ki by applying the Cheng-Prusoff approximation: Ki=IC50/(1+[ligand]/KD) • where [ligand] equals the assay radioligand concentration and KD equals the affinity constant of the radioligand for the target receptor.
^1Radiolabeled Binding (IC50 and K1)
as §1, with “tested was” for “tested is”, “chlorpromazine was” for “chlorpromazine is”, “dilutions (5× assay” for “dilutions (5×assay”, “chlorpromazine were” for “chlorpromazine are”, “[…]” for “10 pM”
A stock concentration of 5 nM [^3H]LSD (lysergic acid diethyl amide) was prepared in 50 mM Tris-HCl, 10 mM MgCl2, 1 mM EDTA, pH 7.4 (Assay Buffer). Aliquots (50 μl) of radioligand were dispensed into the wells of a 96-well plate containing 100 μl of Assay Buffer. […]

[2] = biological target: T1, 5HT7 receptors; experiment: Functional data (Kb), HitHunter cAMP enzyme fragment complementation assay with 5-HT as agonist; assay type: cell-based; set-up: expressed in transfected cells; G418 selection)
Method: Functional efficacy of the compounds of the disclosure on 5-HT7 serotonin receptors were measured in a cell based cAMP enzyme fragment complementation assay using the HitHunter cAMP assay (DiscoveRx). Cells stably expressing human 5HT7 receptors were plated in 96-well plates at 4000 cells/well, 16-20 hours prior to assay in growth media (Ultraculture medium, 2 mM GlutaMax and G418 1 mg/mL. Serial dilutions of the agonist, 5-hydroxytryptamine (5-HT), were prepared in a final concentration range of 10 μM to 10 nM. Compounds of the disclosure were prepared in 3-fold serial dilutions to obtain a final concentration range of 10 μM to 0.1 nM. Compounds of the disclosure are tested for agonist activity in the absence of 5-HT and antagonist activity in the presence of 5-HT. For the cAMP assay, the protocol was followed according to the instructions provided by the supplier. Briefly, cells were incubated with a compound of the disclosure for 30 minutes at 37° C. prior to addition of EC70 concentration of 5-HT. After an additional 30 minutes, cAMP antibody/cell lysis solution was added (20 μL/well) and incubated for 60 minutes at room temperature. cAMP XS+EA reagent is added (20 μL/well) and incubated for 2 hours at room temperature. Luminescence was read on the Envision Multilabel plate reader.

[3] = [3H]LSD radioligand, membranes of cells expressing recombinant 5HT7 receptors, read-out: IC50 (nM)^1
[4] = cAMP assay, cells stably expressing human 5HT7 receptors, antagonist activity in the presence of EC70 5-HT, read-out: Kb (nM)^2
[5] = Table 35, scaffold drawing 615, read-out: IC50
[6] = Table 35, scaffold drawing 615, antagonist mode vs 5-HT, read-out: Kb
[7] = Table 37, scaffold drawing 617, antagonist mode vs 5-HT, read-out: Kb

T1 sequence (P34969 whole entry): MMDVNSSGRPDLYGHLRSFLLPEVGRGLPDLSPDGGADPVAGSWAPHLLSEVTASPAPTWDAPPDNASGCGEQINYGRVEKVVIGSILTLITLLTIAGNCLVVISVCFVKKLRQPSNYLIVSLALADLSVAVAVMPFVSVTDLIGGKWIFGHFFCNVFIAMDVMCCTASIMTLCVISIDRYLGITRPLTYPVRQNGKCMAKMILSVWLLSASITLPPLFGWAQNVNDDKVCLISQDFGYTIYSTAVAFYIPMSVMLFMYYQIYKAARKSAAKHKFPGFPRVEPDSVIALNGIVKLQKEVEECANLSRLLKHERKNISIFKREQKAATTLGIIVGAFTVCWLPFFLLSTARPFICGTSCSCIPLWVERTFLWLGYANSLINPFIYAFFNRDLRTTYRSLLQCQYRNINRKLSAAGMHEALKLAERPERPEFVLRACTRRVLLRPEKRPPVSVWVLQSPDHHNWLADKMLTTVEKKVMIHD

IC50 [1, 5]: 82.8 nM
Kb [2, 6]: 6.19 nM
Structure (SMILES): CCC1(CC)C[C@H](CCN2CCN(c3ccc(Cl)c(Cl)c3)CC2)NC1=O [(R)-5-(2-(4-(3,4-dichlorophenyl)piperazin-1-yl)ethyl)-3,3-diethylpyrrolidin-2-one]

IC50 [1, 5]: 8.7 nM
Kb [2, 6]: 1.92 nM
Structure (SMILES): CCC1(CC)C[C@H](CCN2CCN(c3ccc(F)c(Cl)c3)CC2)NC1=O [(R)-5-(2-(4-(3-chloro-4-fluorophenyl)piperazin-1-yl)ethyl)-3,3-diethylpyrrolidin-2-one]

IC50 [1, 5]: 9.9 nM
Kb [2, 6]: 1.38 nM
Structure (SMILES): CCC1(CC)C[C@H](CCN2CCN(c3cccc(Cl)c3)CC2)NC1=O [(R)-5-(2-(4-(3-chlorophenyl)piperazin-1-yl)ethyl)-3,3-diethylpyrrolidin-2-one]

Ki ([1]; Table 36, scaffold drawing 616): 79 nM
Kb ([2]; Table 36, scaffold drawing 616, antagonist mode vs 5-HT, read-out: Kb): 58.1 nM
Structure (SMILES): CCC1(CC)C[C@@H](CCN2CCN(c3ccc(C)cc3)CC2)NC1=O [(S)-3,3-diethyl-5-(2-(4-(p-tolyl)piperazin-1-yl)ethyl)pyrrolidin-2-one]

Ki ([1]; Table 37, scaffold drawing 617): 63 nM
Kb [2, 7]: 5.04 nM
Structure (SMILES): CC(=O)N1CCC2(CC1)C[C@H](CCN1CCN(c3cccc(Cl)c3)CC1)NC2=O [drawing 617 n=2 R3=3-Cl-Phenyl R7=Acetyl, (R)-8-acetyl-3-(2-(4-(3-chlorophenyl)piperazin-1-yl)ethyl)-2,8-diazaspiro[4.5]decan-1-one]

Ki ([1]; Table 37, scaffold drawing 617): 107 nM
Kb [2, 7]: 13.5 nM
Structure (SMILES): CS(=O)(=O)N1CCC2(CC1)C[C@H](CCN1CCN(c3cccc(Cl)c3)CC1)NC2=O [drawing 617 n=2 R3=3-Cl-Phenyl R7=MeSO2, (R)-3-(2-(4-(3-chlorophenyl)piperazin-1-yl)ethyl)-8-(methylsulfonyl)-2,8-diazaspiro[4.5]decan-1-one]

Ki ([1]; Table 37, scaffold drawing 617): 76 nM
Kb [2, 7]: 14.4 nM
Structure (SMILES): CC(=O)N1CCC2(CC1)C[C@H](CCN1CCN(c3ccc(F)cc3)CC1)NC2=O [drawing 617 n=2 R3=4-F-Phenyl R7=Acetyl, (R)-8-acetyl-3-(2-(4-(4-fluorophenyl)piperazin-1-yl)ethyl)-2,8-diazaspiro[4.5]decan-1-one]

Ki ([1]; Table 37, scaffold drawing 617): 89 nM
Kb [2, 7]: 30.7 nM
Structure (SMILES): CS(=O)(=O)N1CCC2(CC1)C[C@H](CCN1CCN(c3ccc(F)cc3)CC1)NC2=O [drawing 617 n=2 R3=4-F-Phenyl R7=MeSO2, (R)-3-(2-(4-(4-fluorophenyl)piperazin-1-yl)ethyl)-8-(methylsulfonyl)-2,8-diazaspiro[4.5]decan-1-one]

Further lines, the compound ahead of its results:

Structure (SMILES): CCC1(CC)CC(CCN2CCN(c3ccc(C)cc3N3CCOCC3)CC2)NC1=O (stereo not drawn) [3,3-diethyl-5-(2-(4-(4-methyl-2-morpholinophenyl)piperazin-1-yl)ethyl)pyrrolidin-2-one]
IC50 [1, 3]: 74 nM
Kb [2, 4]: 59.3 nM

Structure (SMILES): CCC1(CC)CC(CCN2CCN(c3ccc(C)cc3)CC2)NC1=O (stereo not drawn) [3,3-diethyl-5-(2-(4-(p-tolyl)piperazin-1-yl)ethyl)pyrrolidin-2-one]
IC50 [1, 3]: 28 nM
Kb [2, 4]: 24.1 nM

Structure (SMILES): CCC1(CC)CC(CCN2CCN(c3ccccc3)CC2)NC1=O (stereo not drawn) [3,3-diethyl-5-(2-(4-phenylpiperazin-1-yl)ethyl)pyrrolidin-2-one]
IC50 [1, 3]: 68 nM
Kb [2, 4]: 17.8 nM

Structure (SMILES): CCC1(CC)CC(CCN2CCN(c3ccc(Cl)cc3)CC2)NC1=O (stereo not drawn) [5-(2-(4-(4-chlorophenyl)piperazin-1-yl)ethyl)-3,3-diethylpyrrolidin-2-one]
IC50 [1, 3]: 13 nM
Kb [2, 4]: 54.6 nM

Structure (SMILES): CCC1(CC)C[C@H](CCN2CCN(c3ccc(F)cc3)CC2)NC1=O [(R)-3,3-diethyl-5-(2-(4-(4-fluorophenyl)piperazin-1-yl)ethyl)pyrrolidin-2-one]
IC50 [1, 5]: 12.3 nM
Kb [2, 6]: 0.81 nM

Structure (SMILES): CCC1(CC)C[C@H](CCN2CCN(c3ccc(C)cc3)CC2)NC1=O [(R)-3,3-diethyl-5-(2-(4-(p-tolyl)piperazin-1-yl)ethyl)pyrrolidin-2-one]
Ki ([1]; Table 35, scaffold drawing 615): 11 nM
Kb [2, 6]: 8.43 nM

Structure (SMILES): CCC1(CC)C[C@H](CN2CCN(c3ccc(C)cc3N3CCOCC3)CC2)NC1=O [(R)-3,3-diethyl-5-((4-(4-methyl-2-morpholinophenyl)piperazin-1-yl)methyl)pyrrolidin-2-one formate]
Ki ([1]; Table 35, scaffold drawing 615): 132 nM
Kb [2, 6]: 43.8 nM
